Measured values from patent US20100273205A1, “Magnetic resonance imaging contrast agents” (priority 2005, published 2010).

Test system: formalin-fixed visual cortex (gray and white matter)
Assay: LFB relaxation enhancement, inversion-recovery spin-echo and multi-echo spin-echo MR at 14T
Set-up: species or system human
Conditions: LFB in 95% ethanol then Li2CO3, versus formalin control
Method: Formalin-fixed samples of visual cortex, approximately 1 cm in thickness, were immersed in a mixture of LFB dissolved in a solvent of 95% ethanol (500 mg LFB in 50 ml ethanol) for durations between 48 hours and 3 months. Following LFB staining, the tissue was rinsed in 70% ethanol, rinsed in distilled water, and then immersed in an aqueous solution of lithium carbonate(Li2CO3) (0.25 g Li2CO3 in 500 mL water) until gray-white matter contrast had increased, ranging between approximately 5 minutes and 24 hours. Next, the tissue was rinsed twice more in 70% ethanol and lastly in distilled water. Additional control samples were prepared with 1) formalin only or 2) 95% ethanol followed by immersion in Li2CO3.
Tissue samples were blotted and then immersed in perfluoropolyether (Fomblin, Ausimont USA, Thorofare, N.J.) in a low-pressure environment. […] The low-pressure environment is used to remove artifact-inducing air bubbles from within the tissue.
Data was acquired using a 10 mm birdcage coil in a vertical bore 14T magnet (Magnex Scientific, Oxford, England), with an 89-mm bore and 100 G/cm gradient coil. An inversion-recovery prepared spin-echo sequence and a multi-echo spin-echo sequence were used to determine T1 and T2, respectively. Parameters were estimated in three regions of interest (ROIs), outer gray matter (GMo), inner gray matter (GMi), and white matter (WM), using a nonlinear least-squares fitting routine using the following equations, a:
SIIR−SE=Mo(1−2αe^−TIIT^1)SISE∝Moe^−TEIT^2
where α represents flip angle deviation from 180° and Mo is the equilibrium magnetization.

Luxol fast blue [LFB] was tested, and the “decrease of T1 in inner gray matter (GMi)” value was 41%, the “decrease of T1 in outer gray matter (GMo)” value was 30% and the “decrease of T1 in white matter (WM)” value was 47%.
